Results: patent US12441693B2, “Targeting STAT sumoylation to enhance immune responses” (THE GEORGE WASHINGTON UNIVERSITY, priority 2018, dated 2025)

Assays:
Assay type in all cases: cell-based, human
[1] = test system: Interferon Stimulated Genes (ISGs); test: RNASeq of primary CD4 T cells; settings: IL-2 and HODHBt vs IL-2 and DMSO
Description: RNASeq was performed in primary CD4 T cells treated with HODHBt following the method of Bosque et al., CELL REP. 2017; 18(5):1324-1334, the disclosure of which is hereby incorporated by reference in its entirety.
Total RNA was extracted from cells using Trizol (Invitrogen 15596), polyadenylated RNA was enriched using NEXTflex Poly(A) Beads (Bioo Scientific 512980), and stranded libraries were prepared using a NEXTflex Rapid Directional qRNA-Seq Kit (Bioo Scientific 5130-02D). Sequencing was performed by the Iowa Institute of Human Genetics Genomics Division on an Illumina HiSeq 2500 using 125 base pair (bp) paired-end reads. Raw paired sequences were first trimmed to remove Illumina sequencing adapters and Bioo Scientific randomized 8-mer molecular indexes using Trim Galore! […] For RNA-Seq tracks, reads were then compiled using the genomecov (-split) function of bedtools 2.25.0, normalized by dividing the number of hg19-mapped reads within each sample by the average number of hg19-mapped reads across all nine samples, combined across donors, and visualized on the UCSC Genome Browser. For differential expression analysis, reads were counted over UCSC hg19 genes (26,364 entries) using the featureCounts (-p -B -C -M) function of Subread 1.5.0 (Liao et al., 2014). […]

[2] = test system: HIV-infected cultured TCM cells; test: Killing of HIV-infected cultured TCM cells by expanded autologous NK cells; settings: autologous NK cells expanded with IL-2 and HODHBt
Source text: As for CD8 T cells, STATS play an important role in the expansion of NK cells. As such, it was hypothesized that inhibiting STAT SUMOylation may enhance the expansion of NK cells. This has important implications for adoptive cell immunotherapies as NK cells are increasingly becoming an attractive alternative to T cell therapies. In order to address whether inhibiting STAT SUMOylation may enhance NK proliferation in vitro, NK cells were isolated from two human HIV-negative donors and expanded using Miltenyi Biotec NK MACS Medium in the presence of 500 IU/ml of IL-2 and in the presence or absence of HODHBt.

STAT5, STAT1, STAT3 = test: Western blot of phosphorylated STATs in NK cells
Description: Next, NK cells were cultured with IL-15 in the presence or absence of HODHBt and levels of phosphorylated STATs were measured by Western blot.
In general, samples are prepared and loaded on to a gel and during the electrophoresis the negatively charged proteins move toward the positively charged anode. In order to further analyze the proteins, they are transferred onto a membrane in a procedure called blotting. After the transfer, the membrane is blocked in order to prevent unwanted membrane-protein interaction in the following steps. To visualize the protein of interest the membrane is commonly first probed using a primary protein-specific antibody followed by a labeled secondary antibody used for detection. An image is taken of the membrane and the result is analyzed.

SMILES: O=c1c2ccccc2nnn1O [HODHBt]
- expression of Interferon Stimulated Genes (RNASeq) [1]: induction of several Interferon Stimulated Genes
- killing of HIV-infected cultured TCM cells by NK cells expanded with compound [2]: as well as HIV-infected cultured TCM cells from the same donor
- phosphorylation of STAT1 in NK cells (STAT5, STAT1, STAT3; HODHBt alone): increased the phosphorylation levels of STAT1
- phosphorylation of STAT5 in NK cells (STAT5, STAT1, STAT3; after IL-15 treatment): increased the levels of phosphorylation of STAT5 after IL-15 treatment
- phosphorylation of STAT1 and STAT3 in NK cells (STAT5, STAT1, STAT3; with IL-15, vs IL-15): enhanced the levels of phosphorylation of STAT1 and STAT3 induced by IL-15
